Results: article PMC3947168 (Molecular cancer therapeutics, 2013)
Read-outs that look alike come from different tables or passages of the source. Values belong to the molecule of their own block, whether it stands above or below them.

Key:
MDA-MB-231 cells = assay: MTT cellular proliferation assay, MDA-MB-231; type: cell-based; settings: Homo sapiens, MDA-MB-231, 72 h, read-out: Growth inhibition (IC50)
HT29 cells = assay: MTT cellular proliferation assay, HT29; type: cell-based; settings: Homo sapiens, HT-29, 72 h, read-out: Growth inhibition (IC50)
SW1736 cells [1] = assay: MTT cellular proliferation assay, SW1736; type: cell-based; settings: Homo sapiens, SW-1736, read-out: inhibition of cell growth
TL3 cells [2] = assay: MTT cellular proliferation assay, TL3; type: cell-based; settings: Homo sapiens; for IC50: 72 h, read-out: Growth inhibition (IC50)
[3] = tested on: thyroid cancer cell lines (SW1736, T2, TL3, BHP2-7); assay: MTT cellular proliferation assay, responsive thyroid cancer cell lines; type: cell-based; settings: Homo sapiens, SW-1736, 72 h, read-out: IC50 of proliferation
[4] = tested on: p-AKT, p-STAT3, p-ERK, p-4E-BP1; assay: c-MET downstream signaling; type: cell-based, human; settings: SW1736 and TL3; for levels of p-STAT3 and p-AKT / phosphorylation of ERK and 4E-BP1: 0.1, 1.0, and 10 μM
SW1736 cells [5] = assay: Cell cycle analysis; type: cell-based, human; settings: 24 hour, diluent control 9%
T2 cells [6] = assay: Cell cycle analysis; type: cell-based, human; settings: 24 hour, control 3%
TL3 cells [7] = assay: Cell cycle analysis; type: cell-based, human; settings: 24 hour, control 2%
SW1736 cells [8] = assay: Apoptosis assay; type: cell-based, human; settings: 10 μM, 24 hours, diluent control 10%
T2 cells [9] = assay: Apoptosis assay; type: cell-based, human; settings: 10 μM, 24 hours, diluent control 11%
TL3 cells [10] = assay: Apoptosis assay; type: cell-based, human; settings: 10 μM, 24 hours, diluent control 10%
[11] = tested on: SW1736 human anaplastic thyroid tumor xenografts; assay: Murine xenograft model; type: in vivo, nu/nu athymic mice
[12] = tested on: PTC cell lines (BHP, B-CPAP and TPC-1); settings: cited from earlier work
c-MET [13] = target: T1, c-MET (Homo sapiens, UniProt P08581); settings: 10μM; SW1736 and TL3; HGF 20 ng/ml, 10 minutes
T1 sequence (P08581 25-1390): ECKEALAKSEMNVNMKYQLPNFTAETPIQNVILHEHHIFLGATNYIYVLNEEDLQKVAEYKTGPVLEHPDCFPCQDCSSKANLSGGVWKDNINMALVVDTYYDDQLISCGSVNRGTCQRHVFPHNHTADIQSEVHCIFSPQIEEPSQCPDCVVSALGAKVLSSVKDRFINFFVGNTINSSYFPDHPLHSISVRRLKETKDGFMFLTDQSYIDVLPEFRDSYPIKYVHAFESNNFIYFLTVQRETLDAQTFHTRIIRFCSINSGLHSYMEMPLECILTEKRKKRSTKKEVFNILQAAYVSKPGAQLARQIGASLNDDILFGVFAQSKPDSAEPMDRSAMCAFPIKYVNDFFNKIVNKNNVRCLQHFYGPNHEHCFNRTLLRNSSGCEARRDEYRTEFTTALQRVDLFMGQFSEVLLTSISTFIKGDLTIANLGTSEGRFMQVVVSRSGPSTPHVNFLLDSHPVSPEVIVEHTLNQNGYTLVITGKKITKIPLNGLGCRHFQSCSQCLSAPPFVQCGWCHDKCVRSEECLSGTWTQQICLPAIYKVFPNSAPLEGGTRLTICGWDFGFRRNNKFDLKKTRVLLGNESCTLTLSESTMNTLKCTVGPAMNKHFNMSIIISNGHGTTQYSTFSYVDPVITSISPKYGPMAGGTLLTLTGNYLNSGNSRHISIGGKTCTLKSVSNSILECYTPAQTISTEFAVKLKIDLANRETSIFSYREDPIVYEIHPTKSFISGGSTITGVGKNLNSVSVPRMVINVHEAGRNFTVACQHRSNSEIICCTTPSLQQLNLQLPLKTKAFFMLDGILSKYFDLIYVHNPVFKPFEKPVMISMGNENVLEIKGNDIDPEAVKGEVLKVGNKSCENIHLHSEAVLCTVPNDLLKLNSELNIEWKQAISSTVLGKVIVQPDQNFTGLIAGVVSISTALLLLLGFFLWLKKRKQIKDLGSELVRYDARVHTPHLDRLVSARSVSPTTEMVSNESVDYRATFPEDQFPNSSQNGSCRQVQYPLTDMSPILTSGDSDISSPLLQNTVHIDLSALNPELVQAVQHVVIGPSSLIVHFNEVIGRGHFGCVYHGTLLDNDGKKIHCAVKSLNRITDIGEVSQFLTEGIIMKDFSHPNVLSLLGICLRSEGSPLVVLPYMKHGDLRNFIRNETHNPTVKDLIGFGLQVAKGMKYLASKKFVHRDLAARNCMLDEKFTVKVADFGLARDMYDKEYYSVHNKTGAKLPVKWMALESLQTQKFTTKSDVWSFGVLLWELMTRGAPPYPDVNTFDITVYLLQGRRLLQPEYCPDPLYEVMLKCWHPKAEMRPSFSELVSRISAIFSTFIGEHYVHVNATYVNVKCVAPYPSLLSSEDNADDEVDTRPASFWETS

c-MET [14] = target: T1, c-MET; assay: HGF induced c-MET phosphorylation; type: cell-based
c-MET [15] = target: T1, c-MET; assay: HGF induced c-MET phosphorylation; type: cell-based; remark: listed apart in the source
c-MET [16] = target: T1, c-MET; assay: HGF induced c-MET phosphorylation; type: cell-based; remark: listed apart in the source
c-MET [17] = target: T1, c-MET; assay: HGF induced c-MET phosphorylation; type: cell-based; remark: listed apart in the source
c-MET [18] = settings: read-out: Ki value, c-MET; biochemical analysis; cited from earlier work
c-MET [19] = target: T1, c-MET; settings: read-out: p-MET inhibition (IC50); MDA-MB-231; Report; cited from earlier work
c-MET [20] = target: T1, c-MET; settings: read-out: p-MET inhibition (IC50); HT-29; Report; cited from earlier work

IC50 (MDA-MB-231 cells): 2800 nM | IC50 (HT29 cells): 2600 nM | IC50 [3]: 2000 to 3500 nM
Structure (SMILES): C[C@@H](Oc1cc(-c2cnn(C3CCNCC3)c2)cnc1N)c1c(Cl)ccc(F)c1Cl [Crizotinib]
inhibition at 1 µM (SW1736 cells [1]): < 50% | IC50 (TL3 cells [2]): 2600 nM | inhibition at 0.1 µM (TL3 cells [2]; read-out: inhibition of cell growth): < 20% | levels of p-STAT3 and p-AKT [4]: potently decreased | phosphorylation of ERK and 4E-BP1 [4]: not significantly altered | mean G2/M arrest (cells in G2/M) (SW1736 cells [5]; 10 μM): 74% | cells in G2/M (T2 cells [6]; 10 μM): 26% | cells in G2/M (TL3 cells [7]; 10 μM): 48% | apoptosis (% Annexin V positive cells) (SW1736 cells [8]): 15% | apoptosis (% Annexin V positive cells) (T2 cells [9]): 19% | apoptosis (% Annexin V positive cells) (TL3 cells [10]): 27% | decrease of mean tumor volume compared to vehicle group ([11]; 50 mg/kg daily oral gavage, day 50): 55.8% | Ki67 positivity in tumor tissue compared to vehicle ([11]; 50 mg/kg, day 50, immunohistochemistry): less | c-MET phosphorylation in tumor tissue compared to vehicle ([11]; 50 mg/kg, tumors dissected 4 hours after drug administration at day 50, western blotting): less

Structure (SMILES): Cc1[nH]c(/C=C2\C(=O)Nc3ccc(S(=O)(=O)Cc4c(Cl)cccc4Cl)cc32)c(C)c1C(=O)N1CCC[C@@H]1CN1CCCC1 [PHA665752]
in vitro growth of PTC cell lines [12]: growth inhibited

effect on p-MET (c-MET [13]): inhibited
Structure (SMILES): Cc1[nH]c(/C=C2\C(=O)Nc3ccc(S(=O)(=O)N(C)c4cccc(Cl)c4)cc32)c(C)c1C(=O)N1CCN(C)CC1 [SU11274]
effect on p-AKT, p-STAT3 ([4]; 10μM): inhibited

IC50 (MDA-MB-231 cells): 650 nM | IC50 (HT29 cells): 540 nM | IC50 [3]: 100 to 1000 nM | IC50 (c-MET [14]): > 1000 nM | IC50 (c-MET [15]): > 1000 nM | IC50 (c-MET [16]): ~1000 nM | IC50 (c-MET [17]): ~1000 nM
Structure (SMILES): O=C1NC(=O)[C@@H](c2cn3c4c(cccc24)CCC3)[C@@H]1c1c[nH]c2ccccc12 [Tivantinib]
IC50 (TL3 cells [2]): 330 nM | levels of p-STAT3 and p-AKT [4]: potently decreased | phosphorylation of ERK and 4E-BP1 [4]: not significantly altered | mean G2/M arrest (cells in G2/M) (SW1736 cells [5]; 1 μM): 57% | cells in G2/M (T2 cells [6]; 1 μM): 45% | cells in G2/M (TL3 cells [7]; 1 μM): 23% | apoptosis (% Annexin V positive cells) (SW1736 cells [8]): 14% | apoptosis (% Annexin V positive cells) (T2 cells [9]): 21% | apoptosis (% Annexin V positive cells) (TL3 cells [10]): 20% | Ki (c-MET [18]): 355 nM | IC50 (c-MET [19]): 100 to 300 nM | IC50 (c-MET [20]): 100 to 300 nM
